From US20140275183A1, “AGENT FOR REDUCING SIDE EFFECTS OF KINASE INHIBITOR” (Ajinomoto Co., Inc., priority 2011, published 2014)

Tests used:
[1] = test system: CDAA diet-induced liver cancer model rats; assay: CDAA (choline-deficient L-amino acid defined) diet-induced liver cancer model rats, combined intake of sorafenib and BCAA; type: in vivo, Fischer 344 rats
Excerpt: Using CDAA (choline-deficient L-amino acid defined) diet-induced liver cancer model rats, the effects of the combined intake of sorafenib and branched-chain amino acids (BCAA) were investigated. The CDAA diet used a commercially available choline-deficient diet (#518753: Choline deficient and iron supplemented L-amino acid defined rat diet, manufactured by Dyets Inc.).
Six-week old Fischer 344 rats were divided into a CDAA diet intake group, a sorafenib only intake group, and a BCAA combined intake group (N=15 for each group), and the test diet was provided freely. For the CDAA diet intake group, only the CDAA diet was supplied as the test diet. For the sorafenib only intake group, a CDAA diet mixed with an amount of sorafenib tosylate tablets (Nexavar (a registered trademark) tablets 200 mg, manufactured by Bayer Pharma AG) sufficient to provide an intake of sorafenib of 16 mg/kg/day (800 mg/50 kg/day) (hereafter referred to as the “CDAA/sorafenib diet”) was supplied. For the BCAA combined intake group, a diet prepared by mixing the CDAA/sorafenib diet supplied to the sorafenib only intake group with 2.5% by mass of a BCAA formulation (Livact (a registered trademark) granules, manufactured by Ajinomoto Co., Inc.) (hereafter referred to as the “CDAA/sorafenib/BCAA diet”) was supplied. The weight ratio between isoleucine, leucine and valine in the BCAA formulation was 1:2:1.2 (isoleucine:0.952 g, leucine: 1.904 g, and valine: 1.144 g).
Each individual was autopsied either at the time of death or after 56 weeks from the start of the test (from supply of the test diet), and the effect of treatment continuation was investigated on the basis of the hepatic fibrosis inhibitory effect, the hepatocarcinogenesis rate and the survival rate.
Further, the presence or absence of hepatic fibrosis was determined on the basis of the result of Azan staining of a liver tissue section, and the result of measuring the concentration of HYP (hydroxyproline) within the liver. The presence or absence of hepatocarcinogenesis was evaluated by immunostaining a tissue section of the liver with an antibody to the precancerous marker GST-P (glutathione S-transferase placental form), and inspecting the tissue section for the presence of staining.

Huh7 cells = assay: antitumor action enhancement effect, Huh7 cells implanted subcutaneously in nude mice; type: in vivo, BALB/c nude mice; conditions: sorafenib oral 5 mg/kg for 2 weeks then 30 mg/kg for 5 days, ± feed containing 3% BCAA; three weeks after start; FIG. 3
Procedure: Huh7 cells were implanted subcutaneously in BALB/c nude mice in an amount of 1×10^7 cell/mouse.
After one week, the mice were split into groups based on tumor diameter, and the groups were subjected to 2 weeks of 5 mg/kg sorafenib oral administration±food supply containing 3% BCAA (with the sorafenib administered 5 days/week).
In the third week of administration, the sorafenib dose was increased from 5 mg/kg to 30 mg/kg, and oral administration was continued for 5 days. During this time, supply of the feed containing 3% BCAA was continued.
Three weeks after the start of administration, the tumor diameter of each group was measured, and the average value+SE for the tumor volume was calculated. The tumor volume was calculated as tumor major axis/2×(minor axis)^2.

[2] = sorafenib 16 mg/kg/day in CDAA diet, with or without 2.5% BCAA formulation

SMILES: CNC(=O)c1cc(Oc2ccc(NC(=O)Nc3ccc(Cl)c(C(F)(F)F)c3)cc2)ccn1 [sorafenib, 4-[4-[[4-chloro-3-(trifluoromethyl)phenyl]carbamoylamino]phenoxy]-N-methylpyridine-2-carboxamide]
- number of rats in which hepatic fibrosis or precancerous lesions were observed, compared with the CDAA diet intake group ([1]; Azan staining, liver HYP, GST-P immunostaining, autopsy at death or after 56 weeks): fewer
- bleeding (side effect) [1, 2]: a tendency for bleeding to occur in the gastrointestinal tract, including the anal region, was also observed
- loss of appetite (side effect) [1, 2]: a loss of appetite due to gastrostenosis was also noted
- redness (cutaneous side effect) [1, 2]: redness was noted not only on the four legs, but also on the trunk and the skin
- degree of shrinkage in the tumor volume compared with the control group (Huh7 cells): unchanged
